Our source for the IC50 and melting point values is patent US6552022B1, “Benzamide derivatives and their use as ApoB-100 secretion inhibitors” (SmithKline Beecham Corporation, priority 1998, dated 2003).

The subject of data set [1] is apoB-100. As to the kind of experiment: Inhibition of apoB-100 secretion by primary human hepatocytes (35S-methionine labelling, SDS PAGE, Phosphorimager). The settings on record: 8 hours incubation, tested from 1 μM to 1.6 nM, secretion of radiolabeled apoB-100, untreated cells as controls. Format: cell-based. As for the experimental part:
The ability of the compounds of the invention to inhibit the production of apoB-100 by human hepatocytes in vitro is determined using primary human hepatocytes as a model system. The specificity of the compounds of the invention is established by comparing the effects on apoB-100, apoprotein A-1, and fibrinogen production. A specificity of at least 100 is preferred.
Primary human hepatocytes were seeded at 50 000 cells/well in 96 well plates. After an overnight adhesion phase, cells were incubated with compounds for 8 hours in RPMI medium containing 1% FCS, 4 μg/ml insulin, 100 nM dexamethasone and 50 μCi/ml ^35S-methionine. […] Production of radiolabeled apoB-100 and apoA-1 (used as a selectivity control) was quantified by analysis of supermatants using SDS AGE and exposure of gels onto Phosphorimager screens. Inhibition of apo-100 and apoA-1 secretion by compounds was calculated taking untreated cells as controls, and IC50 of each compound was determined on both apoproteins.

The IC50 is the concentration needed to halve the response being measured. As a reminder, the melting point is the temperature of the solid-liquid transition. `Cc1ccc(C(=O)Nc2ccc(N3CCN(Cc4ccc[nH]4)CC3)cc2)c(-c2ccc(C(F)(F)F)cc2)c1` [Example 64, 5-Methyl-4′-trifluoromethyl-biphenyl-2-carboxylic Acid [4-(4-(1H-pyrrol-2-ylmethyl)-piperazin-1-yl)-phenyl]-amide] gave a melting point of 196 to 198 °C. The IC50 in data set [1] (Homo sapiens, Hepatocyte, 8 h) was found to be 19 nM.

Regarding `Cc1cccc(C(=O)Nc2ccc(N3CCN(Cc4cccc(C#N)c4)CC3)cc2)c1-c1ccc(C(F)(F)F)cc1` [Example 5, 6-Methyl-4′-trifluoromethyl-biphenyl-2-carboxylic Acid [4-[4-(3-cyano-benzyl)-piperazin-1-yl]-phenyl]-amide], the melting point came out at 192 °C. For the same molecule, the IC50 in data set [1] (Homo sapiens, Hepatocyte, 8 h) was 15 nM.

Turning to `Cc1ccc(C(=O)Nc2ccc(N3CCN(Cc4ccc[nH]4)CC3)cc2)c(-c2ccc(C(C)C)cc2)c1` [Example 63, 4′-Isopropyl-5-methyl-biphenyl-2-carboxylic Acid [4-(4-(1H-pyrrol-2-ylmethyl)-25 piperazin-1-yl)-phenyl]-amide], the IC50 in data set [1] came out at 20 nM.

As to `O=C(Nc1ccc(N2CCN(Cc3ccc[nH]3)CC2)cc1)c1ccccc1-c1ccc(C(F)(F)F)cc1` [Example 62, 4′-Trifluormethyl-biphenyl-2-carboxylic Acid [4-(4-(1H-pyrrol-2-ylmethyl)-piperazin-1-yl)-phenyl)-amide], 10 nM corresponded to half-maximal inhibition in data set [1] (IC50).

Turning to `Cc1ccc(C(=O)Nc2ccc(N3CCN(Cc4cccc(-c5nc(C)no5)c4)CC3)cc2)c(-c2ccc(C(C)C)cc2)c1` [Example 6], the IC50 in data set [1] was found to be 18 nM.

The molecule `O=C(CN1CCN(c2ccc(NC(=O)c3ccccc3-c3ccc(C(F)(F)F)cc3)cc2)CC1)NCc1cccc(-c2ccccc2)c1` [Example 77, 4′-Trifluoromethyl-biphenyl-2-carboxylic Acid [4-(4{[(biphenyl-3-ylmethyl)-carbamoyl]-methyl}piperazin-1-yl)-phenyl]-amide] showed a melting point of 165 to 167 °C.

`O=C(Nc1ccc(N2CCN(Cc3ccccn3)CC2)cc1)c1ccccc1-c1ccc(C(F)(F)F)cc1` (hydrate or solvate) showed a melting point of 168 to 170 °C.

`COc1cccc(C(=O)Nc2ccc(N3CCN(Cc4cccc(C#N)c4)CC3)cc2)c1-c1ccc(C(F)(F)F)cc1` [Example 8, 6-Methoxy-4′-trifluoromethyl-biphenyl-2-carboxylic acid [4-[4-(3-cyano-benzyl)-piperazin-1-yl]-phenyl]-amide] had a melting point of 215 to 217 °C.

Molecule `CCOCCN1CCN(c2ccc(NC(=O)c3ccccc3-c3ccc(C(F)(F)F)cc3)cc2)CC1` [Example 43, 4′-Trifluoromethyl-biphenyl-2-carboxylic acid [4-(4-(2-ethoxy-ethyl)-piperazin-1-yl]-phenyl]-amide] yielded a melting point of 176 to 178 °C.

Turning to `COc1ccc(-c2ccccc2C(=O)Nc2ccc(N3CCN(Cc4cccc(C#N)c4)CC3)cc2)cc1OC`, the melting point fell in the range of 116 to 120 °C.

The molecule `N#Cc1cccc(CN2CCC(c3ccc(NC(=O)c4ccccc4-c4ccc(C(F)(F)F)cc4)cc3)CC2)c1` [Example 84, 4′-Trifluoromethyl-biphenyl-2-carboxylic Acid (4-[1-(3-cyano-benzyl)-piperidin-4-yl]-phenyl]-amide] showed a melting point of 124 to 126 °C.

Take `CCOC(=O)CN1CCN(c2ccc(NC(=O)c3ccccc3-c3ccc(C(F)(F)F)cc3)cc2)CC1` [Example 42, 4′-Trifluoromethyl-biphenyl-2-carboxylic acid [4-(4-ethoxycarbonylmethyl-piperazin-1-yl)-phenyl)-amide]: the melting point was 167 to 169 °C.

As for `O=C(Nc1ccc(N2CCN(Cc3ccco3)CC2)cc1)c1ccccc1-c1ccc(C(F)(F)F)cc1` [Example 67, 4′-Trifluoromethyl-biphenyl-2-carboxylic acid [4-(4-furan-2-ylmethyl-piperazin-1-yl)-phenyl]-amide], the melting point was 173 to 175 °C.

The molecule `CC(C)c1ccc(-c2cc(Cl)ccc2C(=O)Nc2ccc(N3CCN(Cc4cccc(C#N)c4)CC3)cc2)cc1` [Example 7, 5-Chloro-4′-isopropyl-biphenyl-2-carboxylic acid [4-[4-(3-cyano-benzyl)-piperazin-1-yl]-phenyl]-amide] yielded a melting point of 188 to 190 °C.

In the case of `COc1cccc(C(=O)Nc2ccc(N3CCN(Cc4cccc(C#N)c4)CC3)cc2)c1OCc1ccc(F)cc1` [Example 29, N-[4-[4-(3-Cyano-benzyl)-piperazin-1-yl]-phenyl]-2-(4-fluoro-benzyloxy)-3-methoxy-benzamide], the melting point lay in the range of 118 to 120 °C.

With `N#Cc1cccc(CN2CCN(c3ccc(NC(=O)c4ccccc4-c4cccc(C(F)(F)F)c4)cc3)CC2)c1`, the melting point was 117 to 121 °C.

In turn, `O=C(Nc1ccc(N2CCN(Cc3cccc(F)c3)CC2)cc1)c1ccccc1-c1ccc(C(F)(F)F)cc1` (hydrate or solvate) had a melting point of 189 to 190.5 °C.

For `Cc1ccc(-c2ccccc2C(=O)Nc2ccc(N3CCN(Cc4cccc(C#N)c4)CC3)cc2)c(C)c1`, the melting point lay in the range of 72 to 76 °C.

`CS(=O)(=O)N1CCN(c2ccc(NC(=O)c3ccccc3-c3ccc(C(F)(F)F)cc3)cc2)CC1` [Example 83, 4′-Trifluoromethyl-biphenyl-2-carboxylic Acid [4-(4-methanesulfonyl-piperazin-1-yl)-phenyl]-amide] had a melting point of 254 to 256 °C.

In turn, `COc1cccc(C(=O)Nc2ccc(N3CCN(Cc4cccc(C#N)c4)CC3)cc2)c1-c1ccc(C(C)C)cc1` [Example 3, 4′-Isopropyl-6-methoxy-biphenyl-2-carboxylic Acid [4-[4-(3-cyano-benzyl)-piperazin-1-yl]-phenyl]-amide] returned a melting point of 179 °C. In data set [1], this molecule returned an IC50 of 13 nM. The IC50 in data set [1] (Homo sapiens, Hepatocyte, 8 h) is 18 nM.

As for `O=C(Nc1ccc(N2CCN(Cc3cccc(-c4noc(C(F)(F)F)n4)c3)CC2)cc1)c1ccccc1-c1ccc(C(F)(F)F)cc1` [Example 75, 4′-Trifluoromethyl-biphenyl-2-carboxylic acid (4-{4-[3-(5-trifluoromethyl-[1,2,4]oxadiazol-3-yl)-benzyl]-piperazin-1-yl}-phenyl)-amide], the melting point lay in the range of 188 to 190 °C.

In the case of `COc1cccc(C(=O)Nc2ccc(N3CCN(Cc4cccc(C#N)c4)CC3)cc2)c1OCCc1ccccc1` [Example 30, N-[4-[4-(3-Cyano-benzyl)-piperazin-1-yl]-phenyl]-3-methoxy-2-phenethyloxy-benzamide], the melting point lay in the range of 140 to 142 °C.

For `NC(=O)c1cccc(CN2CCN(c3ccc(NC(=O)c4ccccc4-c4ccc(C(F)(F)F)cc4)cc3)CC2)c1` [Example 50, 4′-Trifluoromethyl-biphenyl-2-carboxylic acid {4-[4-(3-carbamoyl-benzyl)-piperazin-1-yl]-phenyl)amide], the melting point lay in the range of 199 to 201 °C.

As to `O=C(Nc1ccc(N2CCN(Cc3cnccn3)CC2)cc1)c1ccccc1-c1ccc(C(F)(F)F)cc1` [Example 58, 4′-Trifluoromethyl-biphenyl-2-carboxylic acid [4-(4-pyrazin-2-ylmethyl-piperazin-1-yl)-phenyl]-amide], the melting point is 183 to 185 °C.

`Cc1cccc(C(=O)Nc2ccc(N3CCN(Cc4cccc(C#N)c4)CC3)cc2)c1-c1ccc(C(C)C)cc1` [Example 4] showed an IC50 in data set [1] of 12 nM.

With `COc1ccc(C(=O)Nc2ccc(N3CCN(Cc4cccc(C#N)c4)CC3)cc2)c(-c2ccccc2)c1` [Example 12, 5-Methoxy-biphenyl-2-carboxylic acid [4-[4-(3-cyano-benzyl)-piperazin-1-yl]-phenyl]-amide], the melting point lay in the range of 159 to 161 °C.

The molecule `COc1cccc(CN2CCN(c3ccc(NC(=O)c4ccccc4-c4ccc(C(F)(F)F)cc4)cc3)CC2)c1` (hydrate or solvate) returned a melting point of 168 to 170 °C.

In turn, `N#Cc1cccc(CN2CCN(c3ccc(NC(=O)c4ccccc4-n4cccc4)cc3)CC2)c1` [Example 85, N-{4-[4-(3-Cyano-benzyl)-piperazin-1-yl]-phenyl}-2-pyrrol-1-yl-benzamide] gave a melting point of 174 °C.

`CCCN1CCN(c2ccc(NC(=O)c3ccccc3-c3ccc(C(F)(F)F)cc3)cc2)CC1` [Example 65, 4′-Trifluoromethyl-biphenyl-2-carboxylic acid [4-(4-propyl-piperazin-1-yl)-phenyl]-amide]: the melting point was in the range of 207 to 209 °C.

In turn, `O=C(Nc1ccc(N2CCN(Cc3ccc(F)cc3)CC2)cc1)c1ccccc1-c1ccc(C(F)(F)F)cc1` [Example 52, 4′-Trifluoromethyl-biphenyl-2-carboxylic acid [4-[4-(4-fluoro-benzyl)-piperazin-1-yl]-phenyl]-amide] came in with a melting point of 198 to 200 °C.

`Cc1ccc(C(=O)Nc2ccc(N3CCN(Cc4cccc(C#N)c4)CC3)cc2)c(-c2ccc(C(F)(F)F)cc2)c1` [Example 9, 5-Methyl-4′-trifluoromethyl-biphenyl-2-carboxylic acid [4-[4-(3-cyano-benzyl)-piperazin-1-yl]-phenyl]-amide] registered a melting point of 166 to 168 °C.

Turning to `COc1cccc(C(=O)Nc2ccc(N3CCN(Cc4cccc(C#N)c4)CC3)cc2)c1OCCC1CCCCC1` [Example 31, N-[4-[4-(3-Cyano-benzyl)-piperazin-1-yl]-phenyl]-2-(2-cyclohexyl-ethoxy)-3-methoxy-benzamide], the melting point lay in the range of 102 to 104 °C.
